Experimental findings from PubChem BioAssay AID1996 are described below.

SMILES strings stand for the structures. Values after ≈ are worked out from the molar mass of the structure shown.

In general, kinetic solubility refers to solubility judged after dilution from a stock solution rather than from solid.

For the data set the following is noted: buffer; pH 7.4; 200.0 µM.
In turn, `Br.Cn1ccnc1SCC(=O)c1ccc(Cl)cc1` returned a solubility (kinetic) of 48.9 µg/mL.

In the case of `N/C(=N\OC(=O)c1ccc(Cl)cc1[N+](=O)[O-])c1cccnc1`, the solubility (kinetic) stood at 12.5 µg/mL (≈ 39 µM).

Regarding `CCCN(Cc1ccco1)S(=O)(=O)c1ccc(OC)c(OC)c1`, the kinetic solubility was determined as 41.3 µg/mL (≈ 122 µM).

In turn, `O=C(CCl)N1CCN(C(=O)C2COc3ccccc3O2)CC1` (stereo unspecified) displayed a kinetic solubility of more than 48.7 µg/mL.

`CC(C)(C)NC(=O)c1ccccc1NC(=O)c1ccc2c(c1)OCO2` registered a solubility (kinetic) of 5.3 µg/mL (≈ 15.6 µM).

`Cc1ccn2cc(-c3ccc(O)c(O)c3)nc2c1.Cl` registered a kinetic solubility of 17.8 µg/mL.

Consider `COC(=O)CNC(=O)COC(=O)c1ccc(Cl)nc1`, for which the kinetic solubility was more than 43 µg/mL.

In the case of `CCCOc1ccc(N2CC(C(=O)NC3=NCCS3)CC2=O)cc1` (stereo unspecified), the solubility (kinetic) turned out to be 43.8 µg/mL (≈ 126 µM).

As for `COc1cccc(N2C(=O)C3C(C2=O)C3(c2ccccc2)c2ccccc2)c1` (stereo unspecified), the solubility (kinetic) came out at 6.3 µg/mL (≈ 17.1 µM).

The compound `COc1ccc(NC(=O)CC(C)n2ccnc2)cc1` (stereo unspecified) registered a kinetic solubility of more than 38.9 µg/mL.

With `O=C(NCCc1ccc(Cl)cc1)C1(c2ccccc2)CC1`, the solubility (kinetic) was 35.4 µg/mL (≈ 118 µM).

`O=C(NCc1cccnc1)C(=O)Nc1ccc([N+](=O)[O-])cc1` gave a solubility (kinetic) of 3.7 µg/mL (≈ 12.3 µM). Compared with the last compound, the solubility kinetic is about 9.6-fold lower.

For `O=C(NCc1ccccc1)c1cccnc1Sc1ccccc1`, the kinetic solubility came to 10.6 µg/mL (≈ 33.1 µM).

For the compound `O=S(=O)(NCCc1ccccc1)c1ccc(F)cc1`, the kinetic solubility came out at 40.9 µg/mL (≈ 146 µM).

`NC(Cc1ccccc1)c1nc(-c2ccccc2)no1` (stereo unspecified) registered a solubility (kinetic) of more than 39.8 µg/mL.

The compound `CC(C)(C)NC(=O)/C(=C\c1ccco1)NC(=O)c1ccco1` registered a solubility (kinetic) of more than 45.3 µg/mL.

On to `COCCn1cc(C(=S)N2CCCCC2)c2ccccc21`, for which the solubility (kinetic) was more than 45.4 µg/mL.

In turn, `CC(=O)NC(=S)Nc1ccc(NC(=O)c2cccnc2)cc1` yielded a solubility (kinetic) of 10.2 µg/mL (≈ 32.4 µM).

Consider `Cc1cc(C)n2nc(C(=O)OCC(=O)Nc3ccc(C)c(S(=O)(=O)N4CCOCC4)c3)nc2n1`, for which the kinetic solubility is more than 73.3 µg/mL.

In turn, `COc1cccc(NC(=O)CN(C)CC(=O)NC(C)c2ccccc2)c1` (stereo unspecified) gave a kinetic solubility of 41.4 µg/mL (≈ 116 µM).

The compound `CCCCCCN1C=CC(=C2C(=O)c3ccccc3C2=O)C=C1` came in with a kinetic solubility of less than 0.7 µg/mL.

Regarding `O=C(NCc1ccccc1F)c1ccncc1`, the kinetic solubility is 29.5 µg/mL (≈ 128 µM).

Regarding `Cc1cc(C)cc(NC(=S)NC(=O)C2CC2)c1`, the kinetic solubility amounted to 30 µg/mL (≈ 121 µM).

`CC(=O)c1ccc(N2CCN(C(=O)c3cc(S(=O)(=O)N4CCOCC4)ccc3C)CC2)cc1` registered a kinetic solubility of more than 70.7 µg/mL.

For `Cl.Nc1ccc(CCN2CCCC2)cc1`, the solubility (kinetic) amounted to 34.7 µg/mL.

`O=C(NN=C1CCCCC1)c1ccccc1-n1cccc1`: the solubility (kinetic) was more than 42.2 µg/mL.

As for `O=C(OCC(=O)c1ccc[nH]1)c1ccc(Br)cc1`, the solubility (kinetic) was 7.2 µg/mL (≈ 23.4 µM).

In the case of `COc1ccc2[nH]c(C(=O)N(C)c3ccc(F)cc3F)cc2c1`, the solubility (kinetic) was less than 0.3 µg/mL.

In the case of `N#C/C(=C(/O)c1cccs1)c1nc2ccccc2[nH]1`, the kinetic solubility is 1.2 µg/mL (≈ 4.49 µM).

Regarding `Cc1ccc(S(=O)(=O)NCCN2CCOCC2)s1`, the kinetic solubility was more than 43.6 µg/mL.

The compound `C#CC(CC)(CC)NC(=O)/C=C/C(=O)O` yielded a solubility (kinetic) of 27.7 µg/mL (≈ 132 µM).

Compound `CCC1(c2ccc(F)cc2)NC(=O)N(CC(=O)NC2CCCC(C)C2C)C1=O` (stereo unspecified) gave a kinetic solubility of 13.2 µg/mL (≈ 33.9 µM).

In turn, `COc1ccc(OC)c(/C=C/c2ccc3cccc(O)c3n2)c1` came in with a kinetic solubility of less than 0.7 µg/mL.

As for `Cc1sc2nc[nH]c(=O)c2c1-c1ccc(F)cc1`, the solubility (kinetic) stood at 4.8 µg/mL (≈ 18.4 µM).

The compound `CCOC(=O)c1ccc(Nc2c(OCC)c(=O)c2=O)cc1` had a solubility (kinetic) of 21.6 µg/mL (≈ 74.7 µM).

As to `COc1cccc(/C=C2\SC(=N)N(c3ccc(F)cc3)C2=O)c1`, the solubility (kinetic) came to 0.5 µg/mL (≈ 1.52 µM).

In the case of `CC1(C(=O)OCC(=O)Nc2ccc(Cl)cn2)CC1(Cl)Cl` (stereo unspecified), the solubility (kinetic) is more than 50.6 µg/mL.

Compound `Cc1ccc(NS(=O)(=O)c2ccc3c(c2)oc(=O)n3C)cc1` gave a kinetic solubility of 1.6 µg/mL (≈ 5.03 µM).

In the case of `COc1ccc(CC2CC(=O)N(c3ccc(C)cc3)C2=O)cc1` (stereo unspecified), the solubility (kinetic) turned out to be 4.4 µg/mL (≈ 14.2 µM).

Consider `COc1ccc(NC(=O)c2c(F)cccc2Cl)cc1S(=O)(=O)N1CCOCC1`, for which the solubility (kinetic) is more than 64.3 µg/mL.

In turn, `Cc1ccc(SCCOCCN2CC(C)OC(C)C2)cc1.Cl` (stereo unspecified) had a solubility (kinetic) of 42.5 µg/mL.

The compound `Cc1cn(Cc2ccccc2Cn2cc(C)c(=O)[nH]c2=O)c(=O)[nH]c1=O` yielded a solubility (kinetic) of 52.3 µg/mL (≈ 148 µM). This solubility kinetic and that of the compound before are within 1.5-fold of each other.

`O=C(CN1C(=O)c2ccccc2S1(=O)=O)c1ccc(F)c(F)c1` had a kinetic solubility of 48.2 µg/mL (≈ 143 µM).

`COC(=O)c1cc(NC(=O)c2cccnc2)cc(C(=O)OC)c1`: the kinetic solubility came to 5.6 µg/mL (≈ 17.8 µM).

The compound `CC1CN(c2nc3ccccc3nc2NS(=O)(=O)c2ccccc2)CC(C)O1` (stereo unspecified) gave a kinetic solubility of more than 59.8 µg/mL.

Compound `Nc1ccc2nc(SCC(=O)N3CCOCC3)sc2c1` gave a solubility (kinetic) of more than 46.4 µg/mL.

For the compound `COc1ccc(CNc2ccc(N3CCOCC3)cc2)cc1`, the solubility (kinetic) is 40.9 µg/mL (≈ 137 µM).

With `O=C(CSc1ncccn1)NC1CCS(=O)(=O)C1` (stereo unspecified), the kinetic solubility was found to be 39.7 µg/mL (≈ 138 µM).

`CCOC(=O)N1CCN(c2nc(-c3ccccc3)c3ccccc3n2)CC1` gave a solubility (kinetic) of less than 0.2 µg/mL.

Take `CC1CC(C)CN(C(=O)c2cccc3c2-c2ccccc2C3=O)C1` (stereo unspecified): the kinetic solubility stood at 5 µg/mL (≈ 15.7 µM).

Regarding `COc1ccc(CCNC(=O)/C=C/C(=O)O)cc1OC`, the kinetic solubility was more than 41.9 µg/mL.
